The values below come from patent US12528840B2, “Transcription active complex targeting cancer drug from viral protein sequence” (The Regents of the University of California, priority 2020, dated 2026).

This assay deals with BCBL-1 cells. Conditions: MTT, compared to Mut d1-1 control peptide. From the text:
FIG. 8. Amino acid conservation among different gamma-herpesviral transactivator proteins. […] DE; D substitute to glutamic acid, DS: D substituted for serine. ST; serine substituted for threonine (marked in red).
Amino acid sequence alignment identified homologous protein sequences in other gamma-herpesvirus protein sequence (The Top table in FIG. 8a, also shown in FIG. 2). Based on their alignment, “non-natural” protein sequences were generated by substituting specific amino acids (The peptides are: Wt d1-1, DS 3-1, DE 3-1, and Mut d1-1 (control peptide) from the top to the bottom in the Bottom Table in FIG. 8a). Those four peptides were used in MTT assays in FIG. 8b to examine the effects on cell growth of BCBL-1 […] effusion lymphoma (PEL) cell line. Also tested are three D-amino acid substitutions first two amino acids and c-terminal amino acid (ST d3-1), in comparison with one D-amino acid peptide (N-terminus) (Wt d3-1).

With “d-Arg-KKRR-Ornithine-RRR-B-alanine-LSSILQGLYQL-d-Asp-d Glu [DE 3-1]”, the “killing of BCBL-1 cells in vitro” value is given as “killed BCBL-1 cells in vitro at similar efficacies”.

Take “d-Arg-KKRR-Ornithine-RRR-B-alanine-LSSILQGLYQL-d-Asp-d Ser [DS 3-1]”: the “killing of BCBL-1 cells in vitro” value is listed as “killed BCBL-1 cells in vitro at similar efficacies”.

With “d-Arg-KKRR-Ornithine-RRR-B-alanine-LSSILQGLYQL-d-Asp-d Thr [Wt d3-1]”, the “killing of BCBL-1 cells in vitro” value is reported as “killed BCBL-1 cells in vitro at similar efficacies”.

Regarding “d-Arg-KKRR-Ornithine-RRR-B-alanine-LSTILQGLYQL-d-Asp-d Thr [ST d3-1]”, the “killing of BCBL-1 cells in vitro” value is reported as “killed BCBL-1 cells in vitro at similar efficacies”.

In the case of “d-Arg-KKRR-Ornithine-RRR-β-alanine-LSSILQGLYQLDT [Wt d1-1]”, the “killing of BCBL-1 cells in vitro” value is “killed BCBL-1 cells in vitro at similar efficacies”.
